From patent publication US10233151B2, “Use of a novel 3-aryl-4-catechol-pyrrole-N-propanol compound and the derivatives thereof to treat cancer and diseases related to excessive angiogenesis” (Centre National de la Recherche Scientifique (CNRS), priority 2014, dated 2019)

What was measured:
[1] = system: U87 cells; assay: VEGF secretion by ELISA, U87 culture supernatant; type: cell-based, human; settings: U87, normoxic and hypoxic (2% O2) conditions, concentrations of 5 to 50, 24 hours
Description: At the tenth day of embryonic development, glioblastoma cells (U87, 5×10^6 in 20 μL) were deposited on the chorioallantoic membrane. Two days after the graft, compound (1) at a concentration of 50 μM in a volume of 20 μL was deposited on the surface of the tumor formed. This treatment was repeated every 24 hours for 5 days. The control group was treated with solvent. The test was carried out on 20 eggs bearing glioblastoma tumors for each group. Images of the tumors were taken at day 3 (24 hours after treatment), at day 5 (3 days after treatment) and at day 7 (5 days after treatment) of tumor development. […] In order to determine the antiangiogenic mechanism of compound (1), VEGF was assayed by the ELISA method (Invitrogen, Novex technology), from the culture supernatant of U87 and HCT-116 cells, under normoxic and hypoxic conditions.

[2] = system: A549 cells; assay: Cell growth test (CellTiter-Blue), A549; type: cell-based; settings: Homo sapiens; A549, normoxia, 72 hours; read-out: IC50 (50% decrease in cell growth)
Description: The biological activity of compound (1), as well as that of its structural analogues, was studied in vitro on 7 different cancer cell lines: • HCT-116 (colorectal cancer) • U87 (glioblastoma) • K562 (myeloid leukemia) and K562 R • MDA-MB 231 (mammary adenocarcinoma) • MCF-7 (mammary adenocarcinoma) • A549 (pulmonary alveolar adenocarcinoma)
The cells selected for this study were incubated at 37° C. in the presence of compound (1) added in the culture medium at various concentrations and at various times. The set of experiments carried out made it possible to determine the degree of cytotoxicity of the compound tested (IC50), its capacity to induce cell death by apoptosis, in close dependence on extracellular superoxide anion for its activation.
The effect of compound (1) on the growth of HCT-116, U87, K562, K562R, MDA-MB 231, MCF-7 and A549 cells, cultured in normoxia, was evaluated using a cell growth test (CellTiter-Blue™ Cell Viability Assay, Promega).

[3] = system: caspases 3 and 7 in HCT-116 cells; assay: Caspase 3 and 7 activity (ApoONE test), HCT-116; type: cell-based
Description: (§1) In order to specify whether compound (1) leads to apoptotic cell death, the activity of caspases 3 and 7, marker enzymes of apoptosis, was measured using the ApoONE test (Promega) in HCT-116, U87 and HL60 cells treated in normoxia for 24 hours with compound (1) at concentrations varying from 1 μM to 50 μM.
(§2) In order to determine the role of superoxide anion, produced by the cells, in the activation of compound (1), HCT-116 cells were pretreated for 1 hour with the enzyme superoxide dismutase (SOD1) at 50 U/ml, then treated with compound (1). The cells were analyzed to evaluate, firstly, cell survival in normoxia (72 hours of treatment) and in hypoxia (48 hours of treatment). Secondly, the formation of condensed chromatin in normoxia and the activity of caspases 3 and 7 in normoxia were evaluated.

[4] = system: caspases 3 and 7 in U87 cells; assay: Caspase 3 and 7 activity (ApoONE test), U87; type: cell-based, human; settings: U87, normoxia, 24 hours, 1 μM to 50 μM
Description: as §1

[5] = system: HCT-116 cells; assay: Cell survival after SOD pretreatment; type: cell-based; settings: HCT-116, SOD1 50 U/ml 1 hour pretreatment
Description: as §2

In the case of `OCCCn1cc(-c2ccccc2)c(-c2ccc(O)c(O)c2)c1` [compound (1)], the VEGF secretion [1] is reported as “does not modify VEGF secretion”, the IC50 [2] is reported as 15 µM and the “activation of caspases 3-7 after SOD pretreatment” value ([3]; HCT-116, SOD1 50 U/ml pretreatment, normoxia) is reported as “completely suppressed”. The “activity of caspases 3 and 7” value ([3]; HCT-116, normoxia, 24 hours, 1 μM to 50 μM) was “significant activation of both caspases”, the “activity of caspases 3 and 7” value [4] was “significant activation of both caspases” and the “cytotoxic effect after SOD pretreatment” value ([5]; 10 μM, normoxia, 72 hours) was “completely blocks the cytotoxic effect”. The “cytotoxic effect after SOD pretreatment” value ([5]; 25 μM, hypoxia, 48 hours) was “completely blocks the cytotoxic effect”.
